Source: PMC6407599 (Journal of Enzyme Inhibition and Medicinal Chemistry, 2019)
Values joined by “and” are separate entries in the source; they are usually repeats but may differ in a detail not shown here. Equal values may be shown once. Where a name gives a salt, the structure may show the parent alone. Read-outs that look alike come from different tables or passages of the source. Square brackets hold non-standard residues; d marks the D form. Peptide text beside a SMILES is read from it. * marks the point of attachment. Lys(Me2) = CN(C)CCCC[C@H](N)C(=O)O; Lys(Me) = CNCCCC[C@H](N)C(=O)O; Cbz = O=C(OCc1ccccc1)*

Key:
[1] = Metabolism assay using human liver microsomes; assay type: in vitro ADME; conditions: for cleavage of acetyl group by human liver microsomes: after 10 min; for cleavage of acetyl or trifluoroacetyl group by human liver microsomes: 180 min incubation
Procedure: Human liver microsomes (Life Technologies Gibco cat. # HMMPCL) were thawed on ice and suspended in 100 mM phosphate buffer (pH 7.4) at 0.5 mg/mL. Compounds dissolved in DMSO were then added to the reaction mixture at a final concentration of 5 µM and a final DMSO concentration of 0.1%. Metabolism was initiated by adding 5 mM NADPH and the reactions were incubated at 37 °C in a water bath. Fifty microlitre aliquots of the reaction mixture were taken at various time points and added to 100 µL of cold methanol to terminate the reaction. The time points were centrifuged at 1000 × g for 5 min. Samples were stored at −20 °C until LC/MS analysis.
Using commercially available liver microsomes that contain the full set of endoplasmic reticulum-based metabolic enzymes, including Cyp450s, in an in vitro system the O- and N-dealkylation processes of LB55 were evaluated (Figure 3)[47–48]. Human liver microsomes were purchased from Life Technologies Australia Pty Ltd (catalogue number HMMCPL) and were prepared from a pool of 50 individual male and female donors. The microsomes were diluted into phosphate buffer at pH 7.4 and incubated with LB55 at 37 °C in the presence of the enzyme cofactor NADPH, which initiates the reactions. Aliquots of the reaction mixture were taken at several time points and quenched with cold methanol, which inhibits enzyme activity. The samples were immediately centrifuged at high speed to pellet the microsomes and the supernatants were analysed via LC/MS
However, for simplicity and speed of assessment we opted to identify the removal of the pro-drug moieties using LC/MS in selected-ion mode (SIM). We scanned for specific mass-to-charge ratios (m/z) based on the molecules molecular weight. […] LB55 was incubated with the human liver microsomes for 180 min and samples were taken at 0, 10, 20, 30, 60, 120, and 180 min and analysed via LC/MS in SIM mode. The scanning range was set at m/z 600–800, as this range would capture both the parent LB55 and any demethylated metabolites including LB51 (Figure 3).
Using the same commercially available liver microsomal assay described earlier, we evaluated the removal of acetylated and trifluoroacetylated amino acids. The studies were performed on three amino acids on LB51 that required protecting groups: serine, tyrosine, and lysine (Figure 4).

[2] = test system: Hsp90-Cyp40 interaction (C-terminal domain of Hsp90 and full-length Cyp40); experiment: AlphaLISA binding assay, Hsp90-Cyp40 interaction; conditions: for IC50: C-terminal domain of Hsp90 and full-length Cyp40, DMSO (1%) = 100% binding, read-out: IC50, inhibition of Hsp90-Cyp40 interaction; for efficacy at inhibiting the binding event between Hsp90 and Cyp40: C-terminal domain of Hsp90 and full-length Cyp40
Procedure: The binding assays were performed using an Hsp90 (C-terminal) Inhibitor Screening Kits (cat. 50314 or 50317) purchased from BPS Bioscience. The assay was performed according to the manufacturer's protocol and utilised AlphaLISA® technology (PerkinElmer). The test compounds were dissolved in 100% DMSO and diluted with water to the desired concentration, so that the final dilution was dissolved in 5% DMSO with water. Two microlitres of the dilution was added to a 10 µL reaction so that the final concentration of DMSO was 1% in all reactions. The reactions were conducted at room temperature for 30 min in a 10 µL mixture containing assay buffer, 6 ng (24 nM) of a C-terminal Hsp90β (UniProt P08238, a.a. 527–724) or C-terminal Hsp90α (UniProt P07900, a.a. 535–732), 40 ng (60 nM) Cyp40, and the test compound. Note: for the full-length Hsp90 binding assays, C-terminal Hsp90 was replaced with 24 nM of full-length Hsp90α (Abcam cat # ab48801). After the 30 min incubation, 10 µL of buffer containing 20 µg/mL glutathione acceptor beads (Perkin Elmer) were added to the reaction mix and incubated for 30 min in the dark. Ten microlitres of 40 µg/mL streptavidin donor beads (Perkin Elmer) were then added and the final 30 µL mixture was incubated for 1 h in the dark. The AlphaLISA® signal was measured using a Tecan F200 Pro multimode plate reader.
Modifications to the side chains using the common strategy of O- and N-alkylations were the first prodrugs produced (Figure 2). Compounds LB58, LB56, LB97, and LB55 were all based on the structure of LB51 but contained polar side chains that were masked with methyl moieties (Figure 2). […] However, masking groups often affect the target binding affinity, and evaluation of these molecules in binding assays was required. A biochemical assay using AlphaLISA technology was used to evaluate the efficacy of these molecules in blocking the interaction between Hsp90 and the co-chaperone, Cyp40 (Figure 2). Each compound was incubated at multiple concentrations with the C-terminal domain of Hsp90 and full-length Cyp40. Beads specific for each protein were incubated with the reaction mixture. When the two proteins are bound to each other, the beads for one protein transfer energy to the beads of the other protein, thereby producing a signal. When the binding interaction between the two proteins is inhibited, energy transfer cannot occur, which results in no signal being produced. DMSO (1%) was used as a control, where it represents 100% binding between the two proteins.
The alpha biochemical assay was used to evaluate the efficacy of these two molecules, LB51(Ac)2–Cbz and LB63(Ac)2–Cbz, in blocking the interaction between Hsp90 and the co-chaperone, Cyp40 (Figure 6(A)). Each compound was incubated at multiple concentrations with the C-terminal domain of Hsp90 and full-length Cyp40. DMSO (1%) was used as a negative control to represent 100% binding between the two proteins, and LB51 and LB63 were used as positive controls, inhibiting the binding event. LB51(Ac)2–Cbz was ineffective at inhibiting the interaction between Hsp90 and Cyp40 (Figure 6(a)).

Caco-2 = conditions: cited from earlier work; for apparent permeability Papp: Caco-2 assays
mouse liver = experiment: Metabolism assay in a mouse (liver extract, LC/MS); assay type: in vivo; conditions: IP injection 59.4 mg/kg, 1 h
Procedure: Mice were purchased from Australian BioResources (ABR) (Moss Vale, NSW, Australia) at 7 weeks of age and shipped to a specific pathogen-free facility at UNSW Biological Resources Centre (Sydney, Australia) with 12 h light/dark cycles. Following 1 week of acclimatisation, mice were injected in the intraperitoneal space with LB55 (1.2 mg in 120 µL Milli-Q water). One hour later, mice were euthanised by CO2 asphyxiation and the liver was collected for drug extraction. All mouse experiments were approved by the UNSW Animal Care and Ethics Committee. To extract the compound for LC/MS analysis, the liver tissue was powdered in a mortar and pestle that had been pre-cooled with liquid nitrogen. The tissue was then homogenised in phosphate buffered saline (pH 7.4) by sonication for 2 h. The homogenate was then centrifuged at 800 × g for 10 min at 4 °C before collecting the supernatant. […] The extraction was then centrifuged at 1000 × g for 10 min at 4 °C and subsequently analysed by LC/MS.
The stability of LB55 in a mouse liver was accomplished by treating the mouse with LB55 via intraperitoneal (IP) injection at 59.4 mg/kg for 1 h. […] The mixture was then centrifuged, and the supernatant was analysed via LC/MS in SIM mode, scanning for parent LB55 and any demethylated metabolites including LB51.

C-terminal Hsp90β [3] = target: T1, C-terminal Hsp90β (UniProt P08238, a.a. 527–724) or C-terminal Hsp90α (UniProt P07900, a.a. 535–732) (UniProt P08238); experiment: AlphaScreen or HTRF; AlphaLISA competition (BPS Bioscience kit): 24 nM C-terminal Hsp90, 60 nM Cyp40 and test compound in 10 µL assay buffer, 1% DMSO, room temperature, 30 min; then glutathione acceptor beads and streptavidin donor beads; DMSO = 100% binding
[4] = target: C-terminal Hsp90 (His-tagged, competitive binding assay); experiment: pull-down; competitive binding: C-terminal Hsp90 (100 µM) with LB51-tag (100 µM) 1 h at RT, then untagged compound (0–100 µM) 1 h; captured on NeutrAvidin agarose, 6 washes; Hsp90 detected by Western blot with anti-6×His; DMSO = 100% binding
C-terminal Hsp90 (His-tagged, competitive binding assay), sequence (P08238 527-724): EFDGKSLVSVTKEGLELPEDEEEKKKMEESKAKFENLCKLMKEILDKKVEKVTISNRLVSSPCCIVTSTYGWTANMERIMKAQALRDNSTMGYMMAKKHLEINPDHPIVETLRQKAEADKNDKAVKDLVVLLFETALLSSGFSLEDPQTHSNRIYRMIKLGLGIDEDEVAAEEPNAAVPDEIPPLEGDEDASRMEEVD

C-terminal Hsp90β [5] = target: T1, C-terminal Hsp90β; experiment: AlphaScreen or HTRF; AlphaLISA competition (BPS Bioscience kit): 24 nM C-terminal Hsp90, 60 nM Cyp40 and test compound in 10 µL assay buffer, 1% DMSO, room temperature, 30 min; then glutathione acceptor beads and streptavidin donor beads; DMSO = 100% binding; remark: listed apart in the source

CC(=O)Oc1ccc(C[C@H](NC(=O)OCC2c3ccccc3-c3ccccc32)C(=O)O)cc1 [Fmoc-Tyr(Ac)-OH]
cleavage of acetyl group by human liver microsomes [1]: mostly cleaved

CC(=O)OC[C@@H]1NC(=O)[C@H](CC(N)=O)NC(=O)[C@H](CCCCNC(=O)OCc2ccccc2)NC(=O)[C@H](C)NC(=O)[C@H](Cc2ccc(OC(C)=O)cc2)NC1=O [LB63(Ac)2–Cbz, cyclo-Ala-Tyr(Ac)-Ser(Ac)-Asn-Lys(Cbz)] (cyclo(K(Cbz)NS(Ac)Y(Ac)A))
IC50 [2]: 10 µM

CC(=O)NCCCC[C@H](NC(=O)OCC1c2ccccc2-c2ccccc21)C(=O)O
cleavage of acetyl or trifluoroacetyl group by human liver microsomes [1]: not cleaved

C[C@@H]1NC(=O)[C@H](Cc2ccc(O)cc2)NC(=O)[C@H](CO)NC(=O)[C@H](CC(N)=O)NC(=O)[C@H](CCCCN)NC1=O [LB63] (cyclo(KNSYA))
IC50 [2]: 2 µM
apparent permeability Papp (Caco-2): 0.9 ×10⁻⁶ cm/s

NCCCC[C@@H]1NC(=O)[C@H](Cc2ccccc2)NC(=O)[C@H](Cc2ccc(O)cc2)NC(=O)[C@H](CO)NC(=O)[C@H](CC(N)=O)NC1=O [LB51] (cyclo(KNSYF))
efficacy at inhibiting the binding event between Hsp90 and Cyp40 [2]: most effective
IC50 [2]: 4 µM
apparent permeability Papp (Caco-2): 3.3 ×10⁻⁶ cm/s and 3 ×10⁻⁶ cm/s
membrane permeability Papp (Caco-2; backbone N-methylation study): 3 10^-6 cm/s

O=C(N[C@@H](CCCCNC(=O)C(F)(F)F)C(=O)O)OCC1c2ccccc2-c2ccccc21 [Fmoc-Lys(Tfa)-OH]
cleavage of acetyl or trifluoroacetyl group by human liver microsomes [1]: not cleaved

CC(=O)OC[C@H](NC(=O)OCC1c2ccccc2-c2ccccc21)C(=O)O [Fmoc-Ser(Ac)-OH]
cleavage of acetyl group by human liver microsomes [1]: mostly cleaved

CNCCCC[C@@H]1NC(=O)[C@H](Cc2ccccc2)NC(=O)[C@H](Cc2ccc(OC)cc2)NC(=O)[C@H](CO)NC(=O)[C@H](CC(N)=O)NC1=O [LB97] (cyclo([Lys(Me)]NSY(Me)F))
efficacy at inhibiting the binding event between Hsp90 and Cyp40 [2]: most effective
apparent permeability Papp (Caco-2): 1.9 ×10⁻⁶ cm/s

COC[C@@H]1NC(=O)[C@H](CC(N)=O)NC(=O)[C@H](CCCCN(C)C)NC(=O)[C@H](Cc2ccccc2)NC(=O)[C@H](Cc2ccc(OC)cc2)NC1=O [LB55] (cyclo([Lys(Me2)]NS(Me)Y(Me)F))
metabolism by human liver microsomes (LC/MS SIM) ([1]; 5 µM, NADPH, 37 °C, 180 min): no metabolism occurred
metabolism in mouse liver (LC/MS of liver extract) (mouse liver): a small quantity of LB51 is produced
apparent permeability Papp (Caco-2): 5.6 ×10⁻⁶ cm/s

CC(=O)OC[C@@H]1NC(=O)[C@H](CC(N)=O)NC(=O)[C@H](CCCCNC(=O)OCc2ccccc2)NC(=O)[C@H](Cc2ccccc2)NC(=O)[C@H](Cc2ccc(OC(C)=O)cc2)NC1=O [LB51(Ac)2–Cbz, cyclo-Phe-Tyr(Ac)-Ser(Ac)-Asn-Lys(Cbz)] (cyclo(K(Cbz)NS(Ac)Y(Ac)F))
efficacy at inhibiting the binding event between Hsp90 and Cyp40 [2]: ineffective

KNSYA (head-to-tail cyclic) [LB63]
IC50 (C-terminal Hsp90β [3]): 2 µM

KNSYF (head-to-tail cyclic) [LB51]
IC50 (C-terminal Hsp90β [3]): 4 µM

B1: LB63(Ac)2–Cbz (peptide)
peptide: cyclo(K(Cbz)NS(Ac)Y(Ac)A)
SMILES: CC(=O)OC[C@@H]1NC(=O)[C@H](CC(N)=O)NC(=O)[C@H](CCCCNC(=O)OCc2ccccc2)NC(=O)[C@H](C)NC(=O)[C@H](Cc2ccc(OC(C)=O)cc2)NC1=O
IC50 [4]: 20 µM
IC50 (C-terminal Hsp90β [3]): 10 µM
IC50 (C-terminal Hsp90β [5]): > 10 µM

B2: LB51(Ac)2–Cbz (peptide)
peptide: cyclo(K(Cbz)NS(Ac)Y(Ac)F)
SMILES: CC(=O)OC[C@@H]1NC(=O)[C@H](CC(N)=O)NC(=O)[C@H](CCCCNC(=O)OCc2ccccc2)NC(=O)[C@H](Cc2ccccc2)NC(=O)[C@H](Cc2ccc(OC(C)=O)cc2)NC1=O
IC50 (C-terminal Hsp90β [5]): > 10 µM
